Tests used:
NLRP3 [1] = target: T1, NLRP3 (Homo sapiens, UniProt Q96P20); test: THP-1 cells pyroptosis assay (LPS priming, nigericin, resazurin read-out); type: cell-based; parameters: Seed THP-1 cells (25,000 cells/well) containing 1.0 μg/ml LPS; host or cells: THP-1 cells, LPS-primed, nigericin-stimulated; details: 1 μg/ml LPS, 3 hours compound, 5 μM nigericin 1 hr
Experimental: THP-1 cells (ATCC #TIB-202) were grown in RPMI containing L-glutamine (Gibco #11835) supplemented with 1 mM sodium pyruvate (Sigma #S8636) and penicillin (100 units/ml)/streptomycin (0.1 mg/ml) (Sigma #P4333) in 10% Fetal Bovine Serum (FBS) (Sigma #F0804). The cells were routinely passaged and grown to confluency (˜10^6 cells/ml). On the day of the experiment, THP-1 cells were harvested and resuspended into RPMI medium (without FBS). The cells were then counted and viability (>90%) checked by Trypan blue (Sigma #T8154). Appropriate dilutions were made to give a concentration of 625,000 cells/ml. To this diluted cell solution was added LPS (Sigma #L4524) to give a 1 μg/ml Final Assay Concentration (FAC). 40 μl of the final preparation was aliquoted into each well of a 96-well plate. The plate thus prepared was used for compound screening.
The following method step-by-step assay was followed for compound screening. • 1. Seed THP-1 cells (25,000 cells/well) containing 1.0 μg/ml LPS in 40 μl of RPMI medium (without FBS) in 96-well, black walled, clear bottom cell culture plates coated with poly-D-lysine (VWR #734-0317) • 2. Add 5 μl compound (8 points half-log dilution, with 10 μM top dose) or vehicle (DMSO 0.1% FAC) to the appropriate wells • 3. Incubate for 3 hours at 37° C., 5% CO2 • 4. Add 5 μl nigericin (Sigma #N7143) (FAC 5 μM) to all wells • 5. Incubate for 1 hr at 37° C., 5% CO2 • 6. At the end of the incubation period, spin plates at 300×g for 3 mins and remove supernatant • 7. Then add […] of resazurin (Sigma #R7017) (FAC 100 μM resazurin in RPMI medium without FBS) and incubate plates for a further 1-2 hours at 37° C. and 5% CO2 • 8. Plates were read in an Envision reader at Ex 560 nm and Em 590 nm • 9. IC50 data is fitted to a non-linear regression equation (log inhibitor vs response-variable slope 4-parameters)

NLRP3 [2] = target: T1, NLRP3; test: Human whole blood IL-1β release assay (LPS, nigericin, AlphaLisa); type: cell-based; parameters: Plate out 80 μl of whole blood containing 1 μg/ml of LPS; from tissue; host or cells: human whole blood from healthy donors, LPS-primed, nigericin-stimulated; details: 1 μg/ml LPS, 3 hours compound, 10 μM nigericin 1 hr, IL-1β in supernatant
Experimental: For systemic delivery, the ability to inhibit NLRP3 when the compounds are present within the bloodstream is of great importance. For this reason, the NLRP3 inhibitory activity of a number of compounds in human whole blood was investigated in accordance with the following protocol.
Human whole blood in Li-heparin tubes was obtained from healthy donors from a volunteer donor panel. • 1. Plate out 80 μl of whole blood containing 1 μg/ml of LPS in 96-well, clear bottom cell culture plate (Corning #3585) • 2. Add 10 μl compound (8 points half-log dilution with 10 μM top dose) or vehicle (DMSO 0.1% FAC) to the appropriate wells • 3. Incubate for 3 hours at 37° C., 5% CO2 • 4. Add 10 μl nigericin (Sigma #N7143) (10 μM FAC) to all wells • 5. Incubate for 1 hr at 37° C., 5% CO2 • 6. At the end of the incubation period, spin plates at 300×g for 5 mins to pellet cells and remove 20 μl of supernatant and add to 96-well v-bottom plates for IL-1β analysis (note: these plates containing the supernatants can be stored at −80° C. to be analysed at a later date) • 7. IL-1β was measured according to the manufacturer protocol (Perkin Elmer-AlphaLisa IL-1 Kit AL220F-5000) • 8. IC50 data is fitted to a non-linear regression equation (log inhibitor vs response-variable slope 4-parameters)

T1 sequence (Q96P20 whole entry): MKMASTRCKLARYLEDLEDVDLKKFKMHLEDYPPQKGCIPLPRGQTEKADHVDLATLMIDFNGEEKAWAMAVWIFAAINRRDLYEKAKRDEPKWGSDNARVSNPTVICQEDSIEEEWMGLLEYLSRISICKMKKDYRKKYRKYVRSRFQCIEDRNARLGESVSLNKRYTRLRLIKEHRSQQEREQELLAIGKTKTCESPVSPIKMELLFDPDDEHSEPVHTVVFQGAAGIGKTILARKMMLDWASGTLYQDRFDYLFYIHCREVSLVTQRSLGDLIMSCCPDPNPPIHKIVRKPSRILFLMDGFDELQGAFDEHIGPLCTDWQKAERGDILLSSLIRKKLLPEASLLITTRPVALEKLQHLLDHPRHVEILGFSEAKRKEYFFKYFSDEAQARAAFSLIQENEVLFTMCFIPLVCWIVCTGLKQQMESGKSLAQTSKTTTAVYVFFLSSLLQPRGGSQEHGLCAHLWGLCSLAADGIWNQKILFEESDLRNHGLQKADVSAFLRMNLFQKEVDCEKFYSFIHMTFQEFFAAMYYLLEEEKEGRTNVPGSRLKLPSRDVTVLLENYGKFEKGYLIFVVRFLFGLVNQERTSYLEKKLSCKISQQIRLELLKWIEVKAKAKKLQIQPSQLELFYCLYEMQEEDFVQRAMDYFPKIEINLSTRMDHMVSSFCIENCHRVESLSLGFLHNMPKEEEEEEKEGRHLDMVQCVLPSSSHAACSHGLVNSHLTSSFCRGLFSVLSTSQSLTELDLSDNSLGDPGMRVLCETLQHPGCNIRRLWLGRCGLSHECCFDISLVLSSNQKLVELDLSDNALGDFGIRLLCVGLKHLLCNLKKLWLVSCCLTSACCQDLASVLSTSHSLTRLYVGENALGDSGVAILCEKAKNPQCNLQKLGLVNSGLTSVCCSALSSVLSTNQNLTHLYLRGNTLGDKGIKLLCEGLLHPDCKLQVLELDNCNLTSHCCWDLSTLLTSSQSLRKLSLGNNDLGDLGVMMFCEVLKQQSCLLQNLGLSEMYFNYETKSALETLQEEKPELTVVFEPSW

| Compound | IC50 (NLRP3 [1]) | IC50 (NLRP3 [2]) |
| --- | --- | --- |
| CCN1CCC[C@@H](Nc2cc(C)c(-c3ccc4c(C)c[nH]c4c3)nn2)C1 [Example 4, N-[(3R)-1-Ethyl-3-piperidyl]-5-methyl-6-(3-methyl-1H-indol-6-yl)pyridazin-3-amine] | 43.7 nM | 234 nM |
| CCN1CCC[C@@H](Nc2cc(C)c(-c3ccc4cc(C)[nH]c4c3)nn2)C1 [Example 6, N-[(3R)-1-Ethyl-3-piperidyl]-5-methyl-6-(2-methyl-1H-indol-6-yl)pyridazin-3-amine] | 12.3 nM | 56.2 nM |
| CCN1CCC[C@@H](Nc2cc(C)c(-c3ccc4c(C#N)c[nH]c4c3)nn2)C1 [Example 7, 6-[6-[[(3R)-1-Ethyl-3-piperidyl]amino]-4-methyl-pyridazin-3-yl]-1H-indole-3-carbonitrile] | 133 nM | – |
| CCN1CCC[C@@H](Nc2cc(C)c(-c3ccc4cc(C#N)[nH]c4c3)nn2)C1 [Example 8, 6-[6-[[(3R)-1-Ethyl-3-piperidyl]amino]-4-methyl-pyridazin-3-yl]-1H-indole-2-carbonitrile] | 123 nM | – |
| CCN1CCC[C@@H](Nc2cc(C)c(-c3ccc4cc[nH]c4c3F)nn2)C1 [Example 10, N-[(3R)-1-ethyl-3-piperidyl]-6-(7-fluoro-1H-indol-6-yl)-5-methyl-pyridazin-3-amine] | 22.6 nM | 45.1 nM |
| CCc1cc(N[C@@H]2CCCN(CC)C2)nnc1-c1ccc2c(F)c[nH]c2c1 [Example 12, 5-Ethyl-N-[(3R)-1-ethyl-3-piperidyl]-6-(3-fluoro-1H-indol-6-yl)pyridazin-3-amine] | 18.3 nM | 25.4 nM |
| CCN1CCC[C@@H](Nc2nnc(-c3ccc4cc[nH]c4c3)c(C)n2)C1 [Example 13, N-[(3R)-1-Ethyl-3-piperidyl]-6-(1H-indol-6-yl)-5-methyl-1,2,4-triazin-3-amine] | 47.3 nM | 28.6 nM |
| CCN1CCC[C@@H](Nc2nnc(-c3ccc4c(F)c[nH]c4c3)c(C)n2)C1 [Example 14, N-[(3R)-1-Ethyl-3-piperidyl]-6-(3-fluoro-1H-indol-6-yl)-5-methyl-1,2,4-triazin-3-amine] | 55.9 nM | 43.2 nM |
| CCN1CCC[C@@H](Nc2nnc(-c3ccc4cc[nH]c4c3)c3c2cnn3C)C1 [Example 15, N-[(3R)-1-Ethyl-3-piperidyl]-7-(1H-indol-6-yl)-1-methyl-pyrazolo[3,4-d]pyridazin-4-amine] | 27 nM | 52 nM |
| CCN1CCC[C@@H](Nc2ccc(-c3cc4[nH]ccc4cc3C)nn2)C1 [Example 16, N-[(3R)-1-Ethyl-3-piperidyl]-6-(5-methyl-1H-indol-6-yl)pyridazin-3-amine] | 21 nM | 113 nM |
| Cc1cc(N[C@H]2C[C@@](C)(O)C2)nnc1-c1ccc2c(F)c[nH]c2c1 [Example 17, 3-[[6-(3-Fluoro-1H-indol-6-yl)-5-methyl-pyridazin-3-yl]amino]-1-methyl-cyclobutanol] | 493 nM | – |
| Cc1cc(N2CC[C@H]3CCN(C)C[C@H]32)nnc1-c1ccc2c(F)c[nH]c2c1 [Example 18B, (3aR,7aS)-1-[6-(3-fluoro-1H-indol-6-yl)-5-methyl-pyridazin-3-yl]-6-methyl-3,3a,4,5,7,7a-hexahydro-2H-pyrrolo[2,3-c]pyridine] | 37 nM | 179 nM |

These reach a lower IC50 (NLRP3 [1]). Values come first.

| IC50 (NLRP3 [1]) | IC50 (NLRP3 [2]) | Compound |
| --- | --- | --- |
| 9.2 nM | 48.6 nM | CCN1CCC[C@@H](Nc2cc(C)c(-c3cc4[nH]ccc4cc3F)nn2)C1 [Example 3, N-[(3R)-1-ethyl-3-piperidyl]-6-(5-fluoro-1H-indol-6-yl)-5-methyl-pyridazin-3-amine] |
| 5.1 nM | 17.1 nM | CCN1CCC[C@@H](Nc2cc(C)c(-c3ccc4cc[nH]c4c3)nn2)C1 [Example 1, N-[(3R)-1-Ethyl-3-piperidyl]-6-(1H-indol-6-yl)-5-methyl-pyridazin-3-amine] |
| 5.1 nM | 44.1 nM | CCN1CCC[C@@H](Nc2cc(C(F)(F)F)c(-c3ccc4c(F)c[nH]c4c3)nn2)C1 [Example 11, N-[(3R)-1-Ethyl-3-piperidyl]-6-(3-fluoro-1H-indol-6-yl)-5-(trifluoromethyl)pyridazin-3-amine] |
| 4.9 nM | 26.5 nM | Cc1cc(N[C@@H]2CCCN(C)C2)nnc1-c1ccc2c(F)c[nH]c2c1 [Example 9, 6-(3-Fluoro-1H-indol-6-yl)-5-methyl-N-[(3R)-1-methyl-3-piperidyl]pyridazin-3-amine] |
| 2.7 nM | 9.5 nM | CCN1CCC[C@@H](Nc2cc(C)c(-c3ccc4c(F)c[nH]c4c3)nn2)C1 [Example 2, N-[(3R)-1-Ethyl-3-piperidyl]-6-(3-fluoro-1H-indol-6-yl)-5-methyl-pyridazin-3-amine] |
| 2 nM | 31 nM | Cc1cc(N2CC[C@@H]3CCN(C)C[C@@H]32)nnc1-c1ccc2c(F)c[nH]c2c1 (single isomer, unassigned) [Example 18A] |

Reference: US20250353830A1, “NOVEL COMPOUNDS” (Hoffmann-La Roche Inc., priority 2022, published 2025)
